From article PMC7864049, “Co-crystal structures of HIV TAR RNA bound to lab-evolved proteins show key roles for arginine relevant to the design of cyclic peptide TAR inhibitors” (The Journal of Biological Chemistry, 2021)
Several values for one entry are separate records, joined by “and”; a condition that tells them apart may be missing. Equal values may be shown once. Entries after “also recorded” stand apart in the source; their conditions may differ. Read-outs that look alike come from different tables or passages of the source. Where no end group is shown, it is not given here.

What was measured:
[1] = tested on: HIV-1 TAR RNA (biotinylated TAR 27-mer); assay type: binding
HIV-1 TAR RNA (27-mer) = assay type: binding
[2] = tested on: Tat ARM binding to HIV-1 TAR RNA
[3] = pH 7.5, read-out: KD (apparent)

| Substance | koff [1] [s⁻¹] | koff × 10^−2 [1] | kon [1] | Kd [1, 3] [µM] | Kd ([1]; read-out: KD) [µM] | Kd (HIV-1 TAR RNA (27-mer)) [µM] | ΔG° (HIV-1 TAR RNA (27-mer)) [kcal/mol] | ΔH° (HIV-1 TAR RNA (27-mer)) [kca/mol] | −TΔS° (HIV-1 TAR RNA (27-mer)) [kcal/mol] | Kd (HIV-1 TAR RNA (27-mer); pH 7.5) [µM] | TAR binding in presence of tRNA [1] | fold difference in TAR-binding affinity [1] | fold increase in kon [1] | kon × 10^2 ([1]; 0.625–20 μM) | block of Tat ARM binding to TAR [2] |
| --- | --- | --- | --- | --- | --- | --- | --- | --- | --- | --- | --- | --- | --- | --- | --- |
| PRQRTPRGQ (also: sidechain bridge or staple (positions not given here)) [TB-CP-6.7a, two terminal cysteines cross-linked via a methylene bridge] | 0.018 ± 0.0001 | 1.90 10^−2 s^−1 | 863.0 ± 59.0 M⁻¹ s⁻¹ and 803 ± 14 M⁻¹ s⁻¹ | 22 | 23 ± 0.1 | – | – | – | – | – | – | – | – | – | – |
| RRRTPR (also: sidechain bridge or staple (positions not given here)) [TB-CP-6.9a, cyclic peptide (11-mer] | 0.024 ± 0.0001 | 2.75 10^−2 s^−1 | 7463 ± 130 M⁻¹ s⁻¹ | 3.6 | 3.2 ± 0.8 | 5 ± 0.6 | -7.1 ± 0.02 | −7.2 ± 0.2 | 0.1 ± 0.2 | 5.3 ± 0.2 | capable of binding under this condition | ~6 -fold | 8 -fold | 76.50 10^2 M^−1s^−1 | formed a complex with TAR that occluded Tat-binding sites; also recorded: effectively block the interaction of TAR with the Tat ARM |
